# Test results published in PubChem BioAssay AID220 (DTP/NCI, 2004).
# Where “and” joins values, the source holds several entries; their conditions need not be identical. Identical values can stand only once. Records with an inconclusive call do not appear.
# System: CD8F1 mice, subcutaneous mammary adenocarcinoma, T/C%
# Assay: NCI In Vivo Anticancer Drug Screen. Data for tumor model Mammary Adenocarcinoma CD8F1 (subcutaneous) in CD8F1
# Details: higher = larger tumour
# Outline: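 Compound-treated versus vehicle-treated mice with transplantable tumors; survival or tumor size compared as T/C.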
# [1] = endpoint: median tumor weight change, dose: 62.5 mg/kg/injection, schedule: Q01DX001 (ip), vehicle: saline with Tween-80
# [2] = endpoint: median tumor weight change, dose: 125.0 mg/kg/injection, schedule: Q01DX001 (ip), vehicle: saline with Tween-80
# [3] = endpoint: median tumor weight change, dose: 250.0 mg/kg/injection, schedule: Q01DX001 (ip), vehicle: saline with Tween-80
# [4] = endpoint: median tumor weight change, dose: 500.0 mg/kg/injection, schedule: Q01DX001 (ip), vehicle: saline with Tween-80
# [5] = endpoint: median tumor weight (est.), dose: 12.5 mg/kg/injection, schedule: Q07DX005 (ip), vehicle: saline
# [6] = endpoint: median tumor weight (est.), dose: 25.0 mg/kg/injection, schedule: Q07DX005 (ip), vehicle: saline
# [7] = endpoint: median tumor weight (est.), dose: 50.0 mg/kg/injection, schedule: Q07DX005 (ip), vehicle: saline
# [8] = endpoint: median tumor weight (est.), dose: 100.0 mg/kg/injection, schedule: Q07DX005 (ip), vehicle: saline
# [9] = endpoint: median tumor weight (est.), dose: 200.0 mg/kg/injection, schedule: Q07DX005 (ip), vehicle: saline
# [10] = endpoint: median tumor weight (est.), dose: 400.0 mg/kg/injection, schedule: Q07DX005 (ip), vehicle: saline
# [11] = endpoint: median tumor weight (est.), dose: 12.5 mg/kg/injection, schedule: Q07DX005 (ip), vehicle: saline with Tween-80
# [12] = endpoint: median tumor weight (est.), dose: 25.0 mg/kg/injection, schedule: Q07DX005 (ip), vehicle: saline with Tween-80
# [13] = endpoint: median tumor weight (est.), dose: 50.0 mg/kg/injection, schedule: Q07DX005 (ip), vehicle: saline with Tween-80
# [14] = endpoint: median tumor weight (est.), dose: 200.0 mg/kg/injection, schedule: Q07DX005 (ip), vehicle: saline with Tween-80
# [15] = endpoint: median tumor weight (est.), dose: 6.25 mg/kg/injection, schedule: Q07DX005 (ip), vehicle: saline
structure (smiles),measurement,setting,value
c1ccc2c(c1)-c1ccccc1C1NC21 (stereo not drawn),T/C,"endpoint: median tumor weight change, dose: 62.0 mg/kg/injection, schedule: Q01DX001 (ip), vehicle: saline with Tween-80",58 % of control
COc1ccc2c(ccc3oc([N+](=O)[O-])cc32)c1,T/C,[1],77 % of control
same,T/C,[2],63 % of control
same,T/C,[3],76 % of control
same,T/C,[4],86 % of control
same,T/C,"endpoint: median tumor weight change, dose: 1000.0 mg/kg/injection, schedule: Q01DX001 (ip), vehicle: saline with Tween-80",56 % of control
O=c1[nH]c(=O)c2nc(-c3cccnc3)cnc2[nH]1,T/C,[5],122 % of control
same,T/C,[6],93 % of control
same,T/C,[7],58 % of control
same,T/C,[8],93 % of control
same,T/C,[9],90 % of control
same,T/C,[10],62 % of control
CN1CCN(c2ccc([N+](=O)[O-])c3no[n+]([O-])c23)CC1,T/C,"endpoint: median tumor weight (est.), dose: 5.0 mg/kg/injection, schedule: Q07DX005 (ip), vehicle: saline with Tween-80",95 % of control
same,T/C,"endpoint: median tumor weight (est.), dose: 10.0 mg/kg/injection, schedule: Q07DX005 (ip), vehicle: saline with Tween-80",115 % of control
same,T/C,"endpoint: median tumor weight (est.), dose: 20.0 mg/kg/injection, schedule: Q07DX005 (ip), vehicle: saline with Tween-80",75 % of control
CN(C)CC(Cl)CCl (stereo not drawn),T/C,"endpoint: mean tumor weight, dose: 50.0 mg/kg/injection, schedule: Q07DX009 (ip), vehicle: saline",39 % of control
same,T/C,"endpoint: mean tumor weight, dose: 100.0 mg/kg/injection, schedule: Q07DX006 (ip), vehicle: saline",88 % of control
same,T/C,"endpoint: mean tumor weight, dose: 100.0 mg/kg/injection, schedule: Q07DX009 (ip), vehicle: saline",94 % of control
same,T/C,"endpoint: mean tumor weight, dose: 200.0 mg/kg/injection, schedule: Q07DX006 (ip), vehicle: saline",107 % of control
same,T/C,"endpoint: mean tumor weight, dose: 200.0 mg/kg/injection, schedule: Q07DX009 (ip), vehicle: saline",24 % of control
same,T/C,[5],92 % of control
same,T/C,[6],97 % of control and 117 % of control
same,T/C,[9],62 % of control and 73 % of control
same,T/C,[10],37 % of control
CCCCCCCCCCCCCCCCCCOCC(COP(=O)([O-])OCC[N+](C)(C)C)OC (stereo not drawn),T/C,"endpoint: median tumor weight change, dose: 1.95 mg/kg/injection, schedule: Q01DX001 (ip), vehicle: saline",97 % of control
same,T/C,"endpoint: median tumor weight change, dose: 3.9 mg/kg/injection, schedule: Q01DX001 (ip), vehicle: saline",67 % of control
same,T/C,"endpoint: median tumor weight change, dose: 7.8 mg/kg/injection, schedule: Q01DX001 (ip), vehicle: saline",95 % of control
same,T/C,"endpoint: median tumor weight change, dose: 15.62 mg/kg/injection, schedule: Q01DX001 (ip), vehicle: saline",48 % of control
same,T/C,"endpoint: median tumor weight change, dose: 31.0 mg/kg/injection, schedule: Q01DX001 (ip), vehicle: suspension in saline",79 % of control
same,T/C,"endpoint: median tumor weight change, dose: 31.25 mg/kg/injection, schedule: Q01DX001 (ip), vehicle: saline",100 % of control
same,T/C,"endpoint: median tumor weight change, dose: 62.0 mg/kg/injection, schedule: Q01DX001 (ip), vehicle: suspension in saline",75 % of control
CCOC(=O)C(C)(C)Oc1ccc(Cl)cc1,T/C,[11],61 % of control
same,T/C,[12],113 % of control
same,T/C,[13],84 % of control
same,T/C,"endpoint: median tumor weight (est.), dose: 100.0 mg/kg/injection, schedule: Q07DX005 (ip), vehicle: saline with Tween-80",72 % of control
same,T/C,[14],77 % of control
same,T/C,"endpoint: median tumor weight (est.), dose: 400.0 mg/kg/injection, schedule: Q07DX005 (ip), vehicle: saline with Tween-80",64 % of control
C[C@H](N)C(=O)N[C@@H]1[C@H]2C(=C(O)C[C@@H](O)[C@@H]2O)C(=O)O[C@@H]1C,T/C,"endpoint: median tumor weight change, dose: 125.0 mg/kg/injection, schedule: Q01DX001 (ip), vehicle: saline",101 % of control
same,T/C,"endpoint: median tumor weight change, dose: 250.0 mg/kg/injection, schedule: Q01DX001 (ip), vehicle: saline",120 % of control
same,T/C,"endpoint: median tumor weight change, dose: 1000.0 mg/kg/injection, schedule: Q01DX001 (ip), vehicle: saline",57 % of control
same,T/C,"endpoint: median tumor weight change, dose: 2000.0 mg/kg/injection, schedule: Q01DX001 (ip), vehicle: saline",86 % of control
OCC1OC(n2cnc3cncnc32)C(O)C1O (stereo not drawn),T/C,"endpoint: median tumor weight (est.), dose: 3.12 mg/kg/injection, schedule: Q07DX005 (ip), vehicle: saline",114 % of control
same,T/C,[15],59 % of control
same,T/C,[5],65 % of control
CN1C(=O)NC(c2ccc(Cl)cc2)(c2ccc(Cl)cc2)C1=O,T/C,"endpoint: median tumor weight change, dose: 125.0 mg/kg/injection, schedule: Q01DX001 (ip), vehicle: distilled water + Tween-80",98 % of control
same,T/C,"endpoint: median tumor weight change, dose: 250.0 mg/kg/injection, schedule: Q01DX001 (ip), vehicle: distilled water + Tween-80",80 % of control
same,T/C,"endpoint: median tumor weight change, dose: 500.0 mg/kg/injection, schedule: Q01DX001 (ip), vehicle: distilled water + Tween-80",70 % of control
same,T/C,"endpoint: median tumor weight change, dose: 1000.0 mg/kg/injection, schedule: Q01DX001 (ip), vehicle: distilled water + Tween-80",40 % of control
N#CCCSC(=S)C1CCCC1=N (stereo not drawn),T/C,[2],44 % of control
same,T/C,[3],98 % of control
same,T/C,[4],86 % of control and 108 % of control
COc1ccc(S(=O)(=O)N=N/C=C2\C=CC=CN2O)cc1OC,T/C,"endpoint: median tumor weight change, dose: 31.25 mg/kg/injection, schedule: Q01DX001 (ip), vehicle: saline with Tween-80",60 % of control
same,T/C,[1],87 % of control
same,T/C,[3],106 % of control
O=C(CO)c1ccc([N+](=O)[O-])cc1,T/C,"endpoint: median tumor weight (est.), dose: 6.25 mg/kg/injection, schedule: Q07DX005 (ip), vehicle: saline with Tween-80",117 % of control
same,T/C,[11],112 % of control
same,T/C,[12],91 % of control
same,T/C,[13],118 % of control
same,T/C,[14],86 % of control
O=[N+]([O-])O.[Ga],T/C,"endpoint: mean tumor weight, dose: 75.0 mg/kg/injection, schedule: Q01DX009 (ip), vehicle: saline",120 % of control
same,T/C,[15],94 % of control
same,T/C,[5],114 % of control
same,T/C,"endpoint: median tumor weight (est.), dose: 25.0 mg/kg/injection, schedule: Q04DX005 (ip), vehicle: saline",91 % of control
same,T/C,"endpoint: median tumor weight (est.), dose: 25.0 mg/kg/injection, schedule: Q07DX004 (ip), vehicle: saline",120 % of control
same,T/C,[6],120 % of control
same,T/C,"endpoint: median tumor weight (est.), dose: 50.0 mg/kg/injection, schedule: Q07DX004 (ip), vehicle: saline",184 % of control
same,T/C,"endpoint: median tumor weight (est.), dose: 100.0 mg/kg/injection, schedule: Q04DX005 (ip), vehicle: saline",153 % of control
O=c1n[n+]([O-])ccn1C1OC(CO)C(O)C1O (stereo not drawn),T/C,"endpoint: mean tumor weight, dose: 150.0 mg/kg/injection, schedule: Q07DX006 (ip), vehicle: saline",175 % of control
same,T/C,"endpoint: mean tumor weight, dose: 150.0 mg/kg/injection, schedule: Q07DX007 (ip), vehicle: saline",50 % of control
same,T/C,"endpoint: mean tumor weight, dose: 300.0 mg/kg/injection, schedule: Q07DX006 (ip), vehicle: saline",90 % of control
same,T/C,"endpoint: mean tumor weight, dose: 300.0 mg/kg/injection, schedule: Q07DX007 (ip), vehicle: saline",60 % of control
same,T/C,"endpoint: mean tumor weight, dose: 600.0 mg/kg/injection, schedule: Q07DX006 (ip), vehicle: saline",33 % of control
same,T/C,"endpoint: mean tumor weight, dose: 600.0 mg/kg/injection, schedule: Q07DX007 (ip), vehicle: saline",65 % of control
same,T/C,[7],82 % of control
same,T/C,[8],93 % of control
same,T/C,[9],71 % of control
same,T/C,"endpoint: median tumor weight (est.), dose: 300.0 mg/kg/injection, schedule: Q07DX005 (ip), vehicle: saline",101 % of control
same,T/C,"endpoint: median tumor weight (est.), dose: 600.0 mg/kg/injection, schedule: Q07DX005 (ip), vehicle: saline",106 % of control
